# Test results as given in PMC8234462, “Novel Cyclophilin Inhibitor Decreases Cell Proliferation and Tumor Growth in Models of Hepatocellular Carcinoma” (Cancers, 2021).
# How the values were obtained:
# CypB = CypB (Homo sapiens, UniProt P23284); assay: PPIase activity assay (chymotrypsin-coupled); format: biochemical; conditions: free-cell assay; Cyp equilibrated 1 h at 5 °C with inhibitor; read-out: absolute IC50, PPIase activity CypB
# Protocol: (§1) The PPIase activity of CypA, CypB, CypD and Cyp40 was determined by following the rate of hydrolysis of N-succinyl-Ala-Ala-Pro-Phe-p-nitroanilide by chymotrypsin, a digestive enzyme that only hydrolyzes the trans form of the peptide. Therefore, the hydrolysis of the cis form, the concentration of which is maximized by using a stock dissolved in trifluoroethanol containing 470-mM LiCl, is only possible with the isomerization from the cis to the trans form. […] The reaction was started with the peptide addition, and the change in absorbance was monitored spectrophotometrically at a 6-s interval for 6 min. The blank rates of hydrolysis (in the absence of Cyps) were subtracted from the rates in the presence of Cyps. The initial rates of the enzymatic reaction were analyzed by a first-order regression analysis of the time course of the change in absorbance.
# CypD = CypD (Homo sapiens, UniProt P30405); assay: PPIase activity assay (chymotrypsin-coupled); format: biochemical; conditions: free-cell assay; Cyp equilibrated 1 h at 5 °C with inhibitor; read-out: absolute IC50, PPIase activity CypD
# Chain of CypD (P30405 30-207): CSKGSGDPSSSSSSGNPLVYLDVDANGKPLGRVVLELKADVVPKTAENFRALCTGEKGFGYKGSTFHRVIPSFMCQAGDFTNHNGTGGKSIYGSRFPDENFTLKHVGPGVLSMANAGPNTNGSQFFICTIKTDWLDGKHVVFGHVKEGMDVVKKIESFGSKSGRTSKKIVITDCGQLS
# Protocol: as §1
# Cyp40 = Cyp40 (Homo sapiens, UniProt Q08752); assay: PPIase activity assay (chymotrypsin-coupled); format: biochemical; conditions: free-cell assay; Cyp equilibrated 1 h at 5 °C with inhibitor; read-out: absolute IC50, PPIase activity Cyp40
# Chain of Cyp40 (Q08752 whole entry): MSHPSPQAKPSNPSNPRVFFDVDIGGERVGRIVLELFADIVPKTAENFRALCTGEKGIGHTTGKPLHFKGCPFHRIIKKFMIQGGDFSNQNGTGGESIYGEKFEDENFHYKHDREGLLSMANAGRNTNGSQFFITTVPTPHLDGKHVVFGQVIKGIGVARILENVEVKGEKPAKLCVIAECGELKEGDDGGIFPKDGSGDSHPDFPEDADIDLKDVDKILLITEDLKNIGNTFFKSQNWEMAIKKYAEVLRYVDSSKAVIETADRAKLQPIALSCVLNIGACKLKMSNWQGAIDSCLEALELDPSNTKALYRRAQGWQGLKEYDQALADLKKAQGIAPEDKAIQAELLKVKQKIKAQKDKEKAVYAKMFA
# Protocol: as §1
# CypA = CypA (Homo sapiens, UniProt P62937); assay: PPIase activity assay (chymotrypsin-coupled); format: biochemical; conditions: free-cell assay; Cyp equilibrated 1 h at 5 °C with inhibitor; read-out: absolute IC50, PPIase activity CypA
# Chain of CypA (P62937 whole entry): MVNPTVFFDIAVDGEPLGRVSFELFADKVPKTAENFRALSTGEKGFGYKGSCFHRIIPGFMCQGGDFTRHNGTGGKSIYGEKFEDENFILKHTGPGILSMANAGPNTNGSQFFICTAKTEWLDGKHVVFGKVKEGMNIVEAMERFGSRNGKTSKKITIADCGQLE
# Protocol: as §1
# [1] = Stability of NV651 solution in 25% buffered HPbCD; format: physicochemical; conditions: stored at 4 °C
# Protocol: Twenty-five percent buffered Hydroxy Propyl beta Cyclodextrin (HPbCD) was prepared from Hydroxy Propyl beta Cyclodextrin (Roquette, Lestrem, France), EDTA solution and phosphate buffer at a pH of 7.4, filtered with a […] (VWR, Cat# 28145-483, Radnor, PA, USA) and stored at 4 °C. NV651 was prepared at a concentration of 10 mg/kg with 25% buffered HPbCD (vehicle). NV651 solution was sonicated for 30 min in a water bath sonicator (Bioruptor, Diagenode, Denville, NJ, USA) and shaken for up to an hour, followed by a secondary sterilization with a 0.2-µm filter. NV651 solution was stored at 4 °C up to 2 weeks, with stability confirmed up to 3 weeks.
# Dendritic cells = assay: Cytotoxicity, CellTiter Glo; format: cell-based; conditions: Homo sapiens, Dendritic cell, 168 h, 7 days of treatment, read-out: IC50 (50% reduction in cell viability)
# Protocol: The evaluation of the off-target effects of NV651 was performed by ImQuest BioSciences Inc. (Frederick, MD, USA) by analyzing the cytotoxicity in a panel of primary cells. NV651 was evaluated at a concentration of 30 µM and five serial half-logarithmic dilutions in triplicate. The positive control compounds for each cell type were purchased from Sigma-Aldrich (St. Louis, MO, USA) and were as follows: Unstimulated human peripheral blood mononuclear cells (PBMCs), phytohemagglutinin (PHA)-stimulated PBMCs, monocytes/macrophages, dendritic cells, hepatocytes, induced pluripotent stem cell (iPS) neurons: […] AZT, kidney cells (RPTEC): cisplatin and iPS cardiomyocytes: Doxazosin. The isolation was based on Nair, Archer. Briefly, freshly separated PBMCs from one donor were suspended in DPBS at 4 × 10^6 cells per mL and cultured in a T-75 flask. Cells were incubated for 30 min and then washed 5–7 times with DPBS to remove nonadherent cells. Cells were cultured in RPMI 1640 supplemented with 10% FBS, 2-mM L-glutamine, 25-mM HEPES, […], 100-µg/mL streptomycin, 50-ng/mL rhGM-CSF and 50-ng/mL rhIL-4 and incubated for 7 days. After the incubation period, cells were cultured in the same media with the addition of LPS (10 ng/mL) for two days. […]
# iPS cardiomyocytes = assay: Cytotoxicity, CellTiter Glo; format: cell-based; conditions: Homo sapiens, Cardiomyocyte, 72 h, 3 days of treatment, read-out: IC50 (50% reduction in cell viability)
# Protocol: The evaluation of the off-target effects of NV651 was performed by ImQuest BioSciences Inc. (Frederick, MD, USA) by analyzing the cytotoxicity in a panel of primary cells. NV651 was evaluated at a concentration of 30 µM and five serial half-logarithmic dilutions in triplicate. The positive control compounds for each cell type were purchased from Sigma-Aldrich (St. Louis, MO, USA) and were as follows: Unstimulated human peripheral blood mononuclear cells (PBMCs), phytohemagglutinin (PHA)-stimulated PBMCs, monocytes/macrophages, dendritic cells, hepatocytes, induced pluripotent stem cell (iPS) neurons: […] AZT, kidney cells (RPTEC): cisplatin and iPS cardiomyocytes: Doxazosin. iPS cardiomyocytes (Cellular Dynamics, Madison, WI, USA) were seeded in a 96-well plate precoated with 0.1% gelatin (Sigma-Aldrich, St. Louis, MO, USA) in a plating medium (Cellular dynamics, Madison, WI, USA) at a concentration of 1.5 × 10^4 cells/well. After 48 h of incubation, cells were washed, and NV651 diluted in the maintenance medium (Cellular Dynamics, Madison, WI, USA) was added. After 3 days of incubation, cell viability was measured with CellTiter Glo (Promega, Madison, WI, USA). CellTiter Glo was performed to evaluate cell viability. CellTiter Glo Luminescent Cell Viability Assay (Promega, Madison, WI, USA) was performed according to the manufacturer’s instructions.
# Chain of CypB (P23284 34-216): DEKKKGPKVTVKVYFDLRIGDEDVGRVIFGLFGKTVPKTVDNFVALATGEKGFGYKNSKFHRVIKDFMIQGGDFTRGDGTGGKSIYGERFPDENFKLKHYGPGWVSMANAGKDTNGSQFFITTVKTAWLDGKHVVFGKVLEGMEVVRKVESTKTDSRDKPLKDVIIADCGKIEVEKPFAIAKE
smiles,measurement,setting,value
CC(=O)CCC1C(=O)NC(C(C)C)C(=O)NC(Cc2cc(O)cc(F)c2)C(=O)N2CCCC(N2)C(=O)OC(C(C)=CC=CC(=O)OC(C)(C)C)CC=CC=CC(O)C(C)C1O (stereo not shown) [NV651],IC50,CypB,0.824 nM
same,IC50,CypD,0.842 nM
same,IC50,Cyp40,0.821 nM
same,IC50,CypA,0.49 nM
same,stability of NV651 solution,[1],up to 3 weeks
same,IC50,Dendritic cells,24200 nM
same,IC50,iPS cardiomyocytes,> 30000 nM
